According to patent publication US20260102359A1, “COMBINATION TREATMENT OF DERMAL AND TRANSDERMAL FIBROTIC DISEASES, DISORDERS AND ASSOCIATED PAIN AND INFLAMMATION” (ERESINA, LLC, priority 2022, published 2026):
Where a name gives a salt, the structure may show the parent alone.

Test system: hDMFa myofibroblast cells

Row | Compound | Compound Myofibroblast Cytotoxicity Activity
1 | Cc1ccc([C@@H]2O[C@H](CO)[C@@H](O)[C@H](O)[C@H]2O)cc1Cc1ccc(-c2ccc(F)cc2)s1.O [Cmpd 209, Canagliflozin (hemihydrate)] | +++++
2 | CCOc1nc2cccc(C(=O)O)c2n1Cc1ccc(-c2ccccc2-c2nnn[nH]2)cc1 [Cmpd 210, Candesartan] | ++
3 | CCOc1nc2cccc(C(=O)OC(C)OC(=O)OC3CCCCC3)c2n1Cc1ccc(-c2ccccc2-c2nnn[nH]2)cc1 (centres unmarked) [Cmpd 211, Candesartan Cilexetil] | +++
4 | CCCCCCCCCC(=O)O [Cmpd 212, Caprate (10:0)] | ++
5 | C[N+](C)(C)CCOC(N)=O.[Cl-] [Cmpd 214, Carbamoylcholine chloride] | ++
6 | O=NN(CCCl)C(=O)NCCCl [Cmpd 218, Carmustine] | ++
7 | CC(C)(C)NCC(O)COc1cccc2c1CCC(=O)N2 (centres unmarked) [Cmpd 219, Carteolol HCl] | ++
8 | Cc1ccc(C(C)C)cc1O [Cmpd 220, Carvacrol] | ++
9 | COc1ccccc1OCCNCC(O)COc1cccc2[nH]c3ccccc3c12 (centres unmarked) [Cmpd 221, Carvedilol] | +++
10 | C=C1CC[C@H]2O[C@]2(C)CC[C@@H]2[C@@H]1CC2(C)C [Cmpd 222, Caryophyllene Oxide] | ++
11 | COc1cc2c(Oc3ccc4[nH]c(C)cc4c3F)ncnc2cc1OCCCN1CCCC1 [Cmpd 226, Cediranib (AZD217)] | ++++
12 | CC1=C(C(=O)O)N2C(=O)[C@@H](NC(=O)[C@H](N)c3ccc(O)cc3)[C@H]2SC1 [Cmpd 227, Cefadroxil (hydrate)] | ++
13 | Cc1nnc(SCC2=C(C(=O)O)N3C(=O)[C@@H](NC(=O)Cn4cnnn4)[C@H]3SC2)s1 [Cmpd 228, Cefazolin (sodium salt)] | +++
14 | CO/N=C(\C(=O)N[C@@H]1C(=O)N2C(C(=O)OCOC(=O)C(C)(C)C)=C(C)CS[C@H]12)c1csc(N)n1.Cl [Cmpd 230, Cefetamet pivoxil hydrochloride] | +++++
15 | O=C(O)C1=C(CSc2nnnn2CS(=O)(=O)O)CS[C@@H]2[C@H](NC(=O)[C@H](O)c3ccccc3)C(=O)N12 [Cmpd 232, Cefonicid (sodium salt)] | ++++
16 | CO/N=C(\C(=O)N[C@@H]1C(=O)N2C(C(=O)O)=C(COC(C)=O)CS[C@H]12)c1csc(N)n1 [Cmpd 233, Cefotaxime (sodium salt)] | +++
17 | CO[C@@]1(NC(=O)Cc2cccs2)C(=O)N2C(C(=O)O)=C(COC(N)=O)CS[C@@H]21 [Cmpd 234, Cefoxitin (sodium salt)] | +++++
18 | CO/N=C(\C(=O)N[C@@H]1C(=O)N2C(C(=O)[O-])=C(CSC(=O)c3ccco3)CS[C@H]12)c1csc(N)n1.[Na+] [Cmpd 237, Ceftiofur sodium] | ++
19 | CO/N=C(\C(=O)N[C@@H]1C(=O)N2C(C(=O)OC(C)OC(C)=O)=C(COC(N)=O)CS[C@H]12)c1ccco1 (some centres unmarked) [Cmpd 238, Cefuroxime axetil] | ++

Row | Compound | Compound Myofibroblast Cytotoxicity Activity
20 | O=C[C@H](O)[C@@H](O)[C@H](O[C@@H]1O[C@H](CO)[C@@H](O)[C@H](O)[C@H]1O)[C@H](O)CO [Cmpd 239, Cellobiose] | +++
21 | COc1ccc2cc1Oc1ccc(cc1)C[C@H]1c3c(cc4c(c3Oc3cc5c(cc3OC)CCN(C)[C@@H]5C2)OCO4)CCN1C [Cmpd 241, Cepharanthine] | ++
22 | C[C@H](CCC(=O)O)[C@H]1CC[C@H]2[C@@H]3[C@H](O)C[C@@H]4C[C@H](O)CC[C@]4(C)[C@H]3CC[C@]12C [Cmpd 245, Chenodeoxycholic Acid] | +++
23 | CC(=O)O.CC(=O)O.NC(=N\CCCCCC/N=C(N)/N=C(\N)Nc1ccc(Cl)cc1)/N=C(\N)Nc1ccc(Cl)cc1 [Cmpd 247, Chlorhexidine diacetate] | +++++
24 | N=C(NCCCCCCNC(=N)NC(=N)Nc1ccc(Cl)cc1)NC(=N)Nc1ccc(Cl)cc1.O=C(O)[C@H](O)[C@@H](O)[C@H](O)[C@H](O)CO.O=C(O)[C@H](O)[C@@H](O)[C@H](O)[C@H](O)CO [Cmpd 248, Chlorhexidine digluconate] | +++
25 | [H]/N=C(\N/C(=N/[H])NCCCCCCNC(=N)NC(=N)Nc1ccc(Cl)cc1)Nc1ccc(Cl)cc1 [Cmpd 249, Chlorhexidine HCl] | +++++
26 | CN(C)CCN(Cc1ccc(Cl)cc1)c1ccccn1 [Cmpd 250, Chloropyramine hydrochloride] | ++
27 | Oc1c(Cl)cc(Cl)c2cccnc12 [Cmpd 251, Chloroxine] | ++++
28 | CN(C)CCCN1c2ccccc2Sc2ccc(Cl)cc21 [Cmpd 253, Chlorpromazine HCl] | +++
29 | CN(C)CC/C=C1/c2ccccc2Sc2ccc(Cl)cc21 [Cmpd 254, Chlorprothixene] | +++
30 | CN(C)[C@@H]1C(O)=C(C(N)=O)C(=O)[C@@]2(O)C(O)=C3C(=O)c4c(O)ccc(Cl)c4[C@@](C)(O)[C@H]3C[C@@H]12 [Cmpd 256, Chlortetracycline HCl] | ++
31 | C[N+](C)(C)CCO.O=C([O-])C(O)C(O)C(=O)O (centres unmarked) [Cmpd 257, Choline bitartrate] | +++
32 | Cc1cc(C2CCCCC2)n(O)c(=O)c1 [Cmpd 258, Ciclopirox] | ++++
33 | Cc1cc(C2CCCCC2)n(O)c(=O)c1.NCCO [Cmpd 259, Ciclopirox ethanolamine] | +++
34 | CC1(C)C[C@@H]1C(=O)N/C(=C\CCCCSC[C@H](N)C(=O)O)C(=O)O [Cmpd 260, Cilastatin] | ++++
35 | O=C(O)c1cc(-c2ccccc2)nc2ccccc12 [Cmpd 265, Cinchophen] | ++
36 | O=C(O)C=Cc1ccccc1 [Cmpd 266, Cinnamic acid] | ++
37 | O=C(O)c1cn(C2CC2)c2cc(N3CCNCC3)c(F)cc2c1=O [Cmpd 268, Ciprofloxacin (hydrochloride)] | ++
38 | C[N+](C)(C)CCOP(=O)(O)OP(=O)([O-])OC[C@H]1O[C@@H](n2ccc(N)nc2=O)[C@H](O)[C@@H]1O [Cmpd 271, Citicoline (sodium salt)] | +++

Row | Compound | Compound Myofibroblast Cytotoxicity Activity
39 | O=C(O)CC(O)(CC(=O)O)C(=O)O [Cmpd 273, Citric acid] | ++++
40 | CC[C@H]1OC(=O)[C@H](C)[C@@H](O[C@H]2C[C@@](C)(OC)[C@@H](O)[C@H](C)O2)[C@H](C)[C@@H](O[C@@H]2O[C@H](C)C[C@H](N(C)C)[C@H]2O)[C@](C)(OC)C[C@@H](C)C(=O)[C@H](C)[C@@H](O)[C@]1(C)O [Cmpd 274, Clarithromycin] | +++
41 | Clc1ccc(Cn2c(CN3CCCC3)nc3ccccc32)cc1 [Cmpd 277, Clemizole hydrochloride] | ++
42 | CC(C)(C)NCC(O)c1cc(Cl)c(N)c(Cl)c1 (centres unmarked) [Cmpd 278, Clenbuterol (hydrochloride)] | ++
43 | CCCC(=O)OCOC(=O)C1=C(C)NC(C)=C(C(=O)OC)C1c1cccc(Cl)c1Cl (centres unmarked) [Cmpd 279, Clevidipine Butyrate] | ++
44 | Oc1c(I)cc(Cl)c2cccnc12 [Cmpd 281, Clioquinol] | ++
45 | O=P(O)(O)C(Cl)(Cl)P(=O)(O)O [Cmpd 282, Clodronate (sodium salt hydrate)] | +++
46 | CC(C)/N=c1\cc2n(-c3ccc(Cl)cc3)c3ccccc3nc-2cc1Nc1ccc(Cl)cc1 [Cmpd 283, Clofazimine] | ++
47 | CCN(CC)CCOc1ccc(C(=C(Cl)c2ccccc2)c2ccccc2)cc1 [Cmpd 284, Clomiphene citrate] | +++
48 | CN(C)CCCN1c2ccccc2CCc2ccc(Cl)cc21 [Cmpd 285, Clomipramine HCl] | ++
49 | Cc1cc(C(C#N)c2ccc(Cl)cc2)c(Cl)cc1NC(=O)c1cc(I)cc(I)c1[O-].[Na+] (centres unmarked) [Cmpd 288, Closantel Sodium] | +++
50 | Clc1ccccc1C(c1ccccc1)(c1ccccc1)n1ccnc1 [Cmpd 289, Clotrimazole] | +++
51 | O=C(c1ccc(F)c(F)c1Nc1ccc(I)cc1F)N1CC(O)([C@@H]2CCCCN2)C1 [Cmpd 290, Cobimetinib] | ++++
52 | C=C1C(=O)O[C@@H]2/C=C(\C)CC/C=C(\C)CC[C@@H]12 [Cmpd 292, Costunolide] | +++
53 | CN(CC(=O)O)C(=N)N.O [Cmpd 295, Creatine monohydrate] | ++
54 | CC1(COc2ccc3c(c2)ncn3-c2ccc3cccc(N4CCC(N)CC4)c3n2)COC1 [Cmpd 296, Crenolanib (CP-868596)] | +++++
55 | CC=CC(=O)N(CC)c1ccccc1C [Cmpd 298, Crotamiton] | ++
56 | CN(C)c1ccc(C(=C2C=CC(=[N+](C)C)C=C2)c2ccc(N(C)C)cc2)cc1 [Cmpd 299, Crystal Violet] | +++
